{
  "source": "ChEMBL document CHEMBL4840328",
  "about": "“The Phytochemical Scoulerine Inhibits Aurora Kinase Activity to Induce Mitotic and Cytokinetic Defects” (J Nat Prod, 2021)",
  "key": {"HRPE [1]": {"system": "HRPE", "experiment": "Induction of cell cycle arrest in human RPE cells expressing MYC-Bcl2 assessed as disorganized NUMA1 at 4 uM for 6 hrs by immunostaining analysis", "assay_type": "functional, cell-based"}, "HRPE [2]": {"system": "HRPE", "experiment": "Cytotoxicity against HRPE cells overexpressing MYC-H2BGFP assessed as cell viability measured after 72 hrs by MTT assay", "assay_type": "functional, cell-based", "conditions": "Homo sapiens"}, "HRPE [3]": {"system": "HRPE", "experiment": "Induction of mitotic arrest in HRPE Cells overexpressing MYC at 20 uM by acridine orange staining based fluorescence microscopic analysis", "assay_type": "functional, tissue-based", "conditions": "Homo sapiens"}, "HRPE [4]": {"system": "HRPE", "experiment": "Induction of mitotic arrest in HRPE Cells overexpressing MYC-Bcl2 measured for 46 to 62 hrs by time-lapse analysis", "assay_type": "functional, tissue-based", "conditions": "Homo sapiens, dose 2-4 µM, time 46-62 hrs"}, "HRPE [5]": {"system": "HRPE", "experiment": "Induction of mitotic arrest in HRPE Cells overexpressing MYC assessed as polyploidy at 5 uM by acridine orange staining based fluorescence microscopic analysis", "assay_type": "functional, tissue-based", "conditions": "Homo sapiens"}, "[6]": {"experiment": "Induction of mitotic arrest in HRPE Cells overexpressing MYC measured for 24 hrs by acridine orange staining based fluorescence microscopic analysis", "assay_type": "functional, tissue-based, Homo sapiens"}, "[7]": {"experiment": "Induction of mitotic arrest in HRPE Cells overexpressing MYC assessed as polyploidy measured for 48 hrs by acridine orange staining based fluorescence microscopic analysis", "assay_type": "functional, tissue-based, Homo sapiens"}, "HRPE [8]": {"system": "HRPE", "experiment": "Induction of cell cycle arrest in HRPE cells overexpressing MYC/Bcl2 assessed as centrosome amplification measured after 6 hrs by DAPI staining based analysis", "assay_type": "functional", "conditions": "Homo sapiens"}, "[9]": {"target": "T1, Aurora kinase A (Homo sapiens) (UniProt O14965)", "T1 sequence (whole entry)": "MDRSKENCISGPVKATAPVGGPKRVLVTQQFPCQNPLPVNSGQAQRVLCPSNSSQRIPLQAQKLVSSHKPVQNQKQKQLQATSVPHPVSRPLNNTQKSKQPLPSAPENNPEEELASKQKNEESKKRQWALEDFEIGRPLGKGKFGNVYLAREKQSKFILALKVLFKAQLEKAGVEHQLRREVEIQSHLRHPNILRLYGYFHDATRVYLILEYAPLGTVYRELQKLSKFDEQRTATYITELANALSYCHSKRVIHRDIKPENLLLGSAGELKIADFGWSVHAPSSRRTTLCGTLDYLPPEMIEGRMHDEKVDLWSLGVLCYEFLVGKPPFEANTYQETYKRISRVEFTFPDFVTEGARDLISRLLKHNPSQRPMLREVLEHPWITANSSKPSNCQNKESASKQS", "experiment": "Inhibition of AURKA (unknown origin) in HRPE cells overexpressing MYC/Bcl2 assessed as inhibition of autophosphorylation of threonine 288 at 20 uM measured for 6 hrs by immunostaining based fluorescence microscopic analysis", "assay_type": "cell-based"}, "[10]": {"target": "Aurora kinase B (Homo sapiens) (UniProt Q96GD4)", "sequence (Q96GD4 whole entry)": "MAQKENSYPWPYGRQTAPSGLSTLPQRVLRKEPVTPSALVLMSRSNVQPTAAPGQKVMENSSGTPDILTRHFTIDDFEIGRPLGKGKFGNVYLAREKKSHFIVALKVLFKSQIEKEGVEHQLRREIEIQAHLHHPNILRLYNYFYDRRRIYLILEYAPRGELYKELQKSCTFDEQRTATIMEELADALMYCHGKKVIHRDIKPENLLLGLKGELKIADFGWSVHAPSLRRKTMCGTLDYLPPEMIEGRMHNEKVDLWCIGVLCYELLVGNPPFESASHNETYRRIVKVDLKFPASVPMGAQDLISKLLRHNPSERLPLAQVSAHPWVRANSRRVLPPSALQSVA", "experiment": "Inhibition of AURKB (unknown origin) in HRPE cells overexpressing MYC/Bcl2 assessed as decrease in H3PS10 fluorescence intensity at 20 uM measured for 6 hrs by immunostaining based fluorescence microscopic analysis", "assay_type": "cell-based"}, "NCI-H460": {"system": "NCI-H460", "experiment": "Cytotoxicity against human NCI-H460 cells assessed as centrosome amplification and declustering by measuring multiple foci by immunostaining analysis", "assay_type": "functional, cell-based", "conditions": "time 72.0 hrs"}, "[11]": {"experiment": "Cytotoxicity against human wild type p53HCT116 cells assessed as cell viability measured after 72 hrs by MTT assay", "assay_type": "functional, cell-based", "conditions": "p53HCT116, 72 h"}, "[12]": {"experiment": "Cytotoxicity against human HCT116-p53-null cells assessed as cell viability measured after 72 hrs by MTT assay", "assay_type": "functional, cell-based"}, "NCI-H23": {"system": "NCI-H23", "experiment": "Cytotoxicity against human NCI-H23 cells harboring MYC assessed as cell viability measured after 72 hrs by MTT assay", "assay_type": "functional, cell-based", "conditions": "NCI-H23, 72 h"}, "[13]": {"experiment": "Cytotoxicity against HRPE cells overexpressing MYC assessed as cell viability measured after 72 hrs by MTT assay", "assay_type": "functional, cell-based", "conditions": "Homo sapiens"}, "[14]": {"experiment": "Cytotoxicity against HRPE cells overexpressing MYC/Bcl2 assessed as cell viability measured after 72 hrs by MTT assay", "assay_type": "functional, cell-based", "conditions": "Homo sapiens"}, "A549": {"system": "A549", "experiment": "Cytotoxicity against human A549 cells assessed as cell viability measured after 72 hrs by MTT assay", "assay_type": "functional, cell-based", "conditions": "A549, 72 h"}, "HeLa": {"system": "HeLa", "experiment": "Cytotoxicity against human HeLa cells assessed as cell viability measured after 72 hrs by MTT assay", "assay_type": "functional, cell-based"}, "MDA-MB-231": {"system": "MDA-MB-231", "experiment": "Cytotoxicity against human MDA-MB-231 cells assessed as cell viability measured after 72 hrs by MTT assay", "assay_type": "functional, cell-based", "conditions": "MDA-MB-231, 72 h"}, "SW480": {"system": "SW480", "experiment": "Cytotoxicity against human SW480 cells assessed as cell viability measured after 72 hrs by MTT assay", "assay_type": "functional, cell-based", "conditions": "SW480, 72 h"}, "HRPE [15]": {"system": "HRPE", "experiment": "Induction of cell cycle arrest in human RPE cells expressing MYC-Bcl2 assessed as foci in colocalized gamma-tubulin at 4 uM for 6 hrs by immunostaining analysis", "assay_type": "functional, cell-based"}, "HRPE [16]": {"system": "HRPE", "experiment": "Induction of cell cycle arrest in human RPE cells expressing MYC-Bcl2 assessed as foci in colocalized Aurora kinase A at 4 uM for 6 hrs by immunostaining analysis", "assay_type": "functional, cell-based"}, "HRPE [17]": {"system": "HRPE", "experiment": "Induction of cell cycle arrest in human RPE cells expressing MYC-Bcl2 assessed as disorganized alpha-tubulin at 4 uM for 6 hrs by immunostaining analysis", "assay_type": "functional, cell-based"}},
  "note": "Active and inactive are the calls of the source. The calls are words filed in the database; no cut-off is given here.",
  "data": [
    {"smiles": "CCN(CCCOc1ccc2c(Nc3cc(CC(=O)Nc4cccc(F)c4)[nH]n3)ncnc2c1)CCOP(=O)(O)O", "values": [
      {"measurement": "Activity", "setting": "HRPE [1]", "value": "inactive"}
    ]},
    {"smiles": "COc1cc(Nc2ncc3c(n2)-c2ccc(Cl)cc2C(c2c(F)cccc2OC)=NC3)ccc1C(=O)O", "values": [
      {"measurement": "Activity", "setting": "HRPE [2]", "value": "Active"}
    ]},
    {"smiles": "COc1cc2c(cc1O)[C@@H]1Cc3ccc(O)c(OC)c3CN1CC2", "values": [
      {"measurement": "Activity", "setting": "HRPE [3]", "value": "inactive"}
    ]},
    {"smiles": "COc1cc2c(cc1OC)[C@@H]1Cc3ccc(OC)c(OC)c3CN1CC2", "values": [
      {"measurement": "Activity", "setting": "HRPE [3]", "value": "inactive"}
    ]},
    {"smiles": "COc1cc2c(cc1O)[C@@H]1Cc3ccc(OC)c(O)c3CN1CC2", "note": "[SCOULERINE]", "values": [
      {"measurement": "Activity", "setting": "HRPE [4]", "value": "Dose-Dependent Effect"},
      {"measurement": "Activity", "setting": "HRPE [3]", "value": "inactive"},
      {"measurement": "Activity", "setting": "HRPE [5]", "value": "Active"},
      {"measurement": "EC50", "setting": "[6]", "value": 3.54, "unit": "µM"},
      {"measurement": "EC50", "setting": "[7]", "value": 3.6, "unit": "µM"},
      {"measurement": "Activity", "setting": "HRPE [8]", "value": "inactive"},
      {"measurement": "inhibition", "setting": "[9]", "value": "Active"},
      {"measurement": "inhibition", "setting": "[10]", "value": "Active"},
      {"measurement": "Activity", "setting": "NCI-H460", "value": "Active"},
      {"measurement": "IC50", "setting": "[11]", "value": 6.81, "unit": "µM"},
      {"measurement": "IC50", "setting": "[12]", "value": 5.48, "unit": "µM"},
      {"measurement": "IC50", "setting": "NCI-H23", "value": 2.54, "unit": "µM"},
      {"measurement": "IC50", "setting": "[13]", "value": 4.07, "unit": "µM"},
      {"measurement": "IC50", "setting": "[14]", "value": 4.62, "unit": "µM"},
      {"measurement": "IC50", "setting": "A549", "value": 26.3, "unit": "µM"},
      {"measurement": "IC50", "setting": "HeLa", "value": 6.74, "unit": "µM"},
      {"measurement": "IC50", "setting": "MDA-MB-231", "value": 7.32, "unit": "µM"},
      {"measurement": "IC50", "setting": "SW480", "value": 4.24, "unit": "µM"},
      {"measurement": "Activity", "setting": "HRPE [2]", "value": "inactive"},
      {"measurement": "Activity", "setting": "HRPE [15]", "value": "Active"},
      {"measurement": "Activity", "setting": "HRPE [16]", "value": "Active"},
      {"measurement": "Activity", "setting": "HRPE [17]", "value": "Active"},
      {"measurement": "Activity", "setting": "HRPE [1]", "value": "Active"}
    ]}
  ]
}
